Experimental data taken from paper PMC9138141, “Design, Spectral Characteristics, Photostability, and Possibilities for Practical Application of BODIPY FL-Labeled Thioterpenoid” (Bioengineering, 2022).
Read-outs that look alike come from different tables or passages of the source. One block for each compound: values may come before it.

Legend:
[1] = Solubility in water / micellar solution (NMR samples); assay type: physicochemical; settings: DPC micelles, D2O
[2] = test system: laboratory mice erythrocytes; experiment: Hemolytic activity (erythrotoxicity); assay type: cell-based; settings: 20 µM, entire incubation period 5 h, 37 °C, PBS pH 7.4
Description: A 0.5% (v/v) suspension of laboratory mice erythrocytes in phosphate-buffered saline (PBS, pH 7.4) was used. The hemolytic activity (erythrotoxicity) of the compounds 2 and 6 was assessed by the degree of erythrocyte hemolysis 1, 3, and 5 h after the addition of solutions of the test compounds in DMSO (final concentration 20 μM). The erythrocyte suspension was incubated in a thermostatic shaker Biosan ES-20 with slow stirring at 37 °C temperature for 5 h. After 1, 3, and 5 h, an aliquot was taken, centrifuged, the degree of hemolysis was determined by the hemoglobin content in the supernatant on a Thermo Spectromic Genesys 20 spectrophotometer at λ = 541 nm. The percentage of hemolysis was calculated relative to the total hemolysis of the sample.

[3] = Photobleaching (photodegradation) under UV irradiation at 365 nm; assay type: physicochemical; settings: for kobs∙106 of photodegradation / half-life: UV 365 nm; for half-life: read-out: t1/2 of photodegradation (converted); for half-life increase / photodestruction rate constant decrease compared to 7: studied solvents
Description: The photofading was carried out in quartz cells. The BODIPY solutions in cyclohexane (toluene, 1-octanol, DMSO with c = ~1·10^−5 mol·L^−1) were irradiated with monochromatic light (mercury lamp 250 W with a light filter Carl Zeiss JENA, at λ = 365 nm and room temperature). The area of the light flux was 2.02 cm^2 at a specific power W365 = 4.04 mW·cm^−2 of the UV lamp. The irreversible bleaching of the luminophores at the absorption peak was monitored as a function of time. The EAS of the dye solution was recorded at equal intervals of irradiation (through 5–20 min) on a spectrofluorometer SM2203 in the 300–600 nm wavelength range. The half-life (t1/2) was defined as the time during which the chromophore is destroyed by 50%. The error in determining of t1/2 is 3–5%.
The observed photooxidation rate constants (kobs) were determined by the equation ln(At/A0) = kobs∙t, where A0 and At are the initial and current optical density at the maximum of the long-wavelength absorption band, respectively, and t is the time of irradiation of the sample with UV light.

[4] = Luminescent characteristics (fluorescence) in organic solvents; assay type: physicochemical; settings: for λmaxfl: λex 470 nm; for fluorescence quenching: electron-donating media; for constants of radiative processes (krad) / fluorescence lifetime: range over the solvents studied; for emission band maxima λmaxfl, range: λex = 470 nm, all solvents
Description: (§1) The absorption and emission spectra of dyes solutions (in the range of 10^−6 to 10^−5 M) were recorded on CM 2203 spectrofluorometer (SOLAR) in a 10 mm of absorbing layer thickness at T = 25 ± 0.1 °C. The fluorescence quantum yield (φ), the fluorescence lifetime (τ), the rate constants of radiative processes (krad), and-radiative deactivation (knr) were obtained to use by the standard procedure. The fluorescence quantum yields (φ) of compounds were measured using the standard method (using standard Rhodamine 6G). The φ and τ errors were 10–15 %. The Stokes shift ( ΔλSt ) was calculated by the formula: […]

[5] = test system: laboratory mice erythrocytes; experiment: Penetration into RBC (fluorescence of hemolysates and of residual medium); assay type: cell-based; settings: for penetration into erythrocytes (fluorescence of RBC hemolysates): 20 μM, 10, 30, 60 min incubation, RBC washed three times with PBS
Description: To assess the rate of penetration of the BODIPY 2 and its conjugate with a thioterpenoid 6 into RBC, the compounds were added to a suspension of erythrocytes (final concentration 20 μM) and incubated in a thermostatic shaker Biosan ES-20 with slow stirring at 37 °C. After 10, 30, and 60 min, an aliquot was taken and centrifuged to separate erythrocytes from the incubation medium containing the BODIPY 2 or conjugate 6. Erythrocytes were washed three times with PBS, hemolyzed by adding H2O, DMSO was added, and the fluorescence spectra of hemolysates were studied using a Fluorat-02-Panorama spectrofluorometer (Lumex, Saint Petersburg, Russia). The binding of the BODIPY 2 or conjugate 6 to cells was judged from the fluorescence intensity of the corresponding compounds in hemolysates. DMSO was added to the medium (PBS) remaining after cell incubation, and the corresponding fluorescence spectra were also analyzed. Its intensity was used to judge the residual content of the studied compounds in PBS.

[6] = Electronic absorption spectra in organic solvents; assay type: physicochemical
Description: as §1

RBC = experiment: Uptake by erythrocytes visualized with CytoFLEX; assay type: cell-based, mice; settings: 0.1 µM, 10 min, 488/521 nm λex/λem
Description: The uptake of compounds by erythrocytes was visualized using CytoFLEX SRT (Beckman Coulter) (0.2% suspension of RBC, compound concentration 0.1 μM), exposure time 10 min. Each experiment was carried out in 5–15 replicates. Statistical analysis was conducted using Microsoft Office Excel 2007 software packages. The data represent the mean ± SE.

[7] = ethanol, 1-propanol, 1-butanol, 1-octanol

- solubility in the micellar solution [1]: better solubility
Structure (SMILES): CC1(C)C2CC=C(CO)C1C2 (centres unmarked) [myrtenol]

- kobs∙106 of photodegradation ([3]; 1-octanol): 3.1 ± 0.3 s⁻¹
- kobs∙106 of photodegradation ([3]; DMSO): 27.7 ± 0.3 s⁻¹
- kobs∙106 of photodegradation ([3]; cyclohexane): 2.9 ± 0.3 s⁻¹
- half-life ([3]; solution in 1-octanol, 1-octanol): 82.3 h
- half-life ([3]; solution in DMSO, DMSO): 8.3 h
- half-life ([3]; solution in cyclohexane, cyclohexane): 88.6 h
- half-life ([3]; solution in toluene, toluene): 40.5 h
- half-life increase / photodestruction rate constant decrease compared to 7 [3]: 1.5–2.2 times
- kobs∙106 of photodegradation ([3]; toluene): 5.5 ± 0.3 s⁻¹
- ΔλSt, Stokes shift ([4]; 1-butanol): 15 nm
- φ, fluorescence quantum yield ([4]; 1-butanol): 0.966
- λmaxfl ([4]; 1-butanol): 513 nm
- ΔλSt, Stokes shift ([4]; 1-octanol): 16 nm
- φ, fluorescence quantum yield ([4]; 1-octanol): 0.989
- λmaxfl ([4]; 1-octanol): 515 nm
- ΔλSt, Stokes shift ([4]; 1-propanol): 16 nm
- φ, fluorescence quantum yield ([4]; 1-propanol): 0.956
- λmaxfl ([4]; 1-propanol): 514 nm
- ΔλSt, Stokes shift ([4]; DMF): 15 nm
- φ, fluorescence quantum yield ([4]; DMF): 0.836
- λmaxfl ([4]; DMF): 512 nm
- ΔλSt, Stokes shift ([4]; DMSO): 15 nm
- φ, fluorescence quantum yield ([4]; DMSO): 0.769
- λmaxfl ([4]; DMSO): 512 nm
- ΔλSt, Stokes shift ([4]; chloroform): 15 nm
- φ, fluorescence quantum yield ([4]; chloroform): 0.908
- λmaxfl ([4]; chloroform): 516 nm
- ΔλSt, Stokes shift ([4]; cyclohexane): 12 nm
- φ, fluorescence quantum yield ([4]; cyclohexane): 0.999
- λmaxfl ([4]; cyclohexane): 512 nm
- fluorescence quenching [4]: 16–24%
- ΔλSt, Stokes shift ([4]; ethanol): 13 nm
- φ, fluorescence quantum yield ([4]; ethanol): 0.910
- increase of fluorescence quantum yield in the homologous series of alcohols [4, 7]: ~ 8%
- λmaxfl ([4]; ethanol): 510 nm
- constants of radiative processes (krad) [4]: 5.96–8.33 × 10^7 s^−1
- fluorescence lifetime [4]: 10.2–16.0 ns
- ΔλSt, Stokes shift ([4]; toluene): 17 nm
- φ, fluorescence quantum yield ([4]; toluene): 0.991
- λmaxfl ([4]; toluene): 518 nm
- emission band maxima λmaxfl, range [4]: 510–519 nm
- ε, molar absorption coefficient ([6]; 1-butanol): 74136 L/mol/cm
- λmaxabs S0→S1 ([6]; 1-butanol): 498 nm
- λmaxabs S0→S2 ([6]; 1-butanol): 356–363 nm
- ε, molar absorption coefficient ([6]; 1-octanol): 72443 L/mol/cm
- λmaxabs S0→S1 ([6]; 1-octanol): 499 nm
- λmaxabs S0→S2 ([6]; 1-octanol): 357–364 nm
- ε, molar absorption coefficient ([6]; 1-propanol): 74948 L/mol/cm
- λmaxabs S0→S1 ([6]; 1-propanol): 498 nm
- λmaxabs S0→S2 ([6]; 1-propanol): 359–369 nm
- ε, molar absorption coefficient ([6]; DMF): 76709 L/mol/cm
- λmaxabs S0→S1 ([6]; DMF): 497 nm
- λmaxabs S0→S2 ([6]; DMF): 357–363 nm
- ε, molar absorption coefficient ([6]; DMSO): 66069 L/mol/cm
- λmaxabs S0→S1 ([6]; DMSO): 497 nm
- λmaxabs S0→S2 ([6]; DMSO): 356–363 nm
- ε, molar absorption coefficient ([6]; chloroform): 74131 L/mol/cm
- λmaxabs S0→S1 ([6]; chloroform): 501 nm
- λmaxabs S0→S2 ([6]; chloroform): 358–363 nm
- ε, molar absorption coefficient ([6]; cyclohexane): 87724 L/mol/cm
- λmaxabs S0→S1 ([6]; cyclohexane): 500 nm
- λmaxabs S0→S2 ([6]; cyclohexane): 359–364 nm
- ε, molar absorption coefficient ([6]; ethanol): 72444 L/mol/cm
- λmaxabs S0→S1 ([6]; ethanol): 497 nm
- λmaxabs S0→S2 ([6]; ethanol): 356–361 nm
- ε, molar absorption coefficient ([6]; toluene): 79432 L/mol/cm
- λmaxabs S0→S1 ([6]; toluene): 501 nm
- λmaxabs S0→S2 ([6]; toluene): 360–368 nm
Structure (SMILES): COC(=O)CCCC1=C2C(C)=CC(C)=[N+]2[B-](F)(F)n2c(C)cc(C)c21 [Compound 2]
- hemolysis of RBC (erythrotoxicity) [2]: did not exceed the spontaneous level
- penetration into erythrocytes (fluorescence of RBC hemolysates) [5]: practically not detected in hemolysates

- increase of photodegradation (photooxidation) efficiency in DMSO ([3]; DMSO compared to cyclohexane): > 10 times
- increase of photostability compared to the meso-unsubstituted analog ([3]; UV irradiation): ~ 2 times
- half-life increase / photodestruction rate constant decrease compared to 7 [3]: 1.5–2.2 times
- ΔλSt, Stokes shift ([4]; 1-butanol): 15 nm
- φ, fluorescence quantum yield ([4]; 1-butanol): 0.884
- λmaxfl ([4]; 1-butanol): 516 nm
- ΔλSt, Stokes shift ([4]; 1-octanol): 13 nm
- φ, fluorescence quantum yield ([4]; 1-octanol): 0.941
- λmaxfl ([4]; 1-octanol): 514 nm
- ΔλSt, Stokes shift ([4]; 1-propanol): 14 nm
- φ, fluorescence quantum yield ([4]; 1-propanol): 0.861
- λmaxfl ([4]; 1-propanol): 514 nm
- ΔλSt, Stokes shift ([4]; DMF): 16 nm
- φ, fluorescence quantum yield ([4]; DMF): 0.833
- increase of nonradiative deactivation constant knr ([4]; DMF and DMSO compared to cyclohexane): 200–300 times
- λmaxfl ([4]; DMF): 515 nm
- ΔλSt, Stokes shift ([4]; DMSO): 15 nm
- φ, fluorescence quantum yield ([4]; DMSO): 0.763
- λmaxfl ([4]; DMSO): 515 nm
- fluorescence quantum yield φ, range ([4]; at 514–519 nm, organic solvents): 76–100%
- ΔλSt, Stokes shift ([4]; chloroform): 14 nm
- φ, fluorescence quantum yield ([4]; chloroform): 0.878
- λmaxfl ([4]; chloroform): 517 nm
- ΔλSt, Stokes shift ([4]; cyclohexane): 13 nm
- φ, fluorescence quantum yield ([4]; cyclohexane): 0.999
- λmaxfl ([4]; cyclohexane): 515 nm
- fluorescence quenching [4]: 16–24%
- ΔλSt, Stokes shift ([4]; ethanol): 16 nm
- φ, fluorescence quantum yield ([4]; ethanol): 0.857
- increase of fluorescence quantum yield in the homologous series of alcohols [4, 7]: ~ 8%
- λmaxfl ([4]; ethanol): 514 nm
- constants of radiative processes (krad) [4]: 5.96–8.33 × 10^7 s^−1
- fluorescence lifetime [4]: 10.2–16.0 ns
- ΔλSt, Stokes shift ([4]; toluene): 16 nm
- φ, fluorescence quantum yield ([4]; toluene): 0.867
- λmaxfl ([4]; toluene): 519 nm
- emission band maxima λmaxfl, range [4]: 510–519 nm
- ε, molar absorption coefficient ([6]; 1-butanol): 66887 L/mol/cm
- λmaxabs S0→S1 ([6]; 1-butanol): 501 nm
- λmaxabs S0→S2 ([6]; 1-butanol): 355–366 nm
- ε, molar absorption coefficient ([6]; 1-octanol): 68275 L/mol/cm
- λmaxabs S0→S1 ([6]; 1-octanol): 501 nm
- λmaxabs S0→S2 ([6]; 1-octanol): 355–363 nm
- ε, molar absorption coefficient ([6]; 1-propanol): 68931 L/mol/cm
- λmaxabs S0→S1 ([6]; 1-propanol): 500 nm
- λmaxabs S0→S2 ([6]; 1-propanol): 356–361 nm
- ε, molar absorption coefficient ([6]; DMF): 70218 L/mol/cm
- λmaxabs S0→S1 ([6]; DMF): 499 nm
- λmaxabs S0→S2 ([6]; DMF): 357–361 nm
- ε, molar absorption coefficient ([6]; DMSO): 68188 L/mol/cm
- λmaxabs S0→S1 ([6]; DMSO): 500 nm
- λmaxabs S0→S2 ([6]; DMSO): 355–360 nm
- extinction coefficient ɛ, range ([6]; at 498–503 nm, organic solvents, in L/mol·cm): 64,000–78,000
- ε, molar absorption coefficient ([6]; chloroform): 76900 L/mol/cm
- λmaxabs S0→S1 ([6]; chloroform): 503 nm
- λmaxabs S0→S2 ([6]; chloroform): 352–363 nm
- ε, molar absorption coefficient ([6]; cyclohexane): 75390 L/mol/cm
- λmaxabs S0→S1 ([6]; cyclohexane): 502 nm
- λmaxabs S0→S2 ([6]; cyclohexane): 357–362 nm
- ε, molar absorption coefficient ([6]; ethanol): 64235 L/mol/cm
- λmaxabs S0→S1 ([6]; ethanol): 498 nm
- λmaxabs S0→S2 ([6]; ethanol): 359–361 nm
- ε, molar absorption coefficient ([6]; toluene): 78830 L/mol/cm
- λmaxabs S0→S1 ([6]; toluene): 503 nm
- λmaxabs S0→S2 ([6]; toluene): 352–360 nm
Structure (SMILES): CC1=CC(C)=[N+]2C1=C(CCCC(=O)OCCSC1CC3CCC1(C)C3(C)C)c1c(C)cc(C)n1[B-]2(F)F (centres unmarked) [Compound 6]
- hemolysis of RBC (erythrotoxicity) [2]: did not exceed the spontaneous level
- relative content of BODIPY-positive cells (RBC): more than an order of magnitude higher
- penetration into erythrocytes (fluorescence of RBC hemolysates) [5]: actively penetrates erythrocytes
- absorption by RBC from the incubation medium (decline of supernatant fluorescence) ([5]; 20 μM, 60 min incubation, PBS): more intensively than the initial BODIPY 2
